According to US4897344A, “Method of hardening gelatin” (Fuji Photo Film Co., Ltd., priority 1987, dated 1990):
Converted amounts (≈) assume the structure as drawn.

Assay: Solubility in water at 25 °C (weight recovered undissolved and weight dissolved after stirring 5 hours)
Type: physicochemical
Settings: for Weight Recovered: undissolved portion, 10 grams in 100 ml of water, 5 hours stirring; for solubility thermodynamic at 5 h: water, head prints 10 ml, text prints 100 ml
Protocol: Ten grams of Compound 1 of this invention and 10 grams of Comparative Compound (I) disclosed (as illustrative compound 3) in Japanese Patent Application No. 41221/78 for comparative purposes were each separately dissolved in 100 ml of water and stirred for 5 hours while maintaining a temperature of 25° C. The undissolved portion was recovered by filtration and the weight of the recovered material was determined after drying. Comparative Compound (I)
The weights of the compounds recovered and the amounts dissolved in 100 ml of water at 25° C. calculated on the basis of the weights recovered are shown in Table 1.

| SMILES | Weight Recovered [grams] | solubility thermodynamic at 5 h [mg/mL] | solubility in water relative to Comparative Compound (I) (in words) |
| --- | --- | --- | --- |
| C=CS(=O)(=O)CC(=O)NCCNC(=O)CS(=O)(=O)C=C [Comparative Compound (I), reference compound] | 8.0 | 20 (≈ 61.7 mM) | – |
| C=CS(=O)(=O)C(CCc1ccc(S(=O)(=O)O)cc1)S(=O)(=O)C=C [Compound 1] | 0 | > 100 | much better solubility in water |
